Where two headings read alike, the source gives them in different places.
Key:
[1] = molecular target: T1, SARS-CoV-2 helicase (nsp13) (Severe acute respiratory syndrome coronavirus 2, UniProt P0DTD1)
[2] = molecular target: T1, SARS-CoV-2 helicase (nsp13); conditions: read-out: IC50 for unwinding activity
[3] = molecular target: SARS-CoV-2 nsp13 (Severe acute respiratory syndrome coronavirus 2, UniProt P0DTD1); format: binding
[4] = 100 nM nsp13, compound at 1 μM, 10 nM probe

Row | Compound | fluorescence intensity of BODIPY FL ATP-γ-S with nsp13 [3, 4] | fluorescence intensity of BODIPY FL ATP-γ-S with nsp13 [3] | also measured
1 | Nc1ccc([O-])c(=O)cc1.Nc1ccc([O-])c(=O)cc1.Nc1ccc([O-])c(=O)cc1.[Bi+3] [Bi(Tro-NH2)3, Bi(5-aminotropolonate)3] | – | – | fold lower ATPase IC50 than that of Bi(NAC)3 [1]: over 30 fold; IC50 ([1]; read-out: IC50 for ATPase): 30 nM; IC50 [2]: 360 ± 20 nM
2 | Nc1nc2nc[nH]c2c(=S)[nH]1 [6-TG, 6-thioguanine] | did not observe any apparent decrease in the fluorescence intensity | – | –
3 | colloidal bismuth subcitrate [CBS] | – | decreased fluorescence intensities | –
4 | N[C@@H](CCC(=O)N[C@@H](CS)C(=O)NCC(=O)O)C(=O)O [GSH, glutathione] | – | did not observe any apparent decrease in the fluorescence intensity | –
5 | CC(=O)N[C@@H](CS)C(=O)O [NAC, N-acetyl cysteine] | did not observe any apparent decrease in the fluorescence intensity | – | –
6 | CC(C)c1cccc(=O)c(O)c1 [Hino, hinokitiol] | did not observe any apparent decrease in the fluorescence intensity | – | –

From publication PMC11220592 (Chemical Science, 2024)
